Values of other authors in patent publication US20040247676A1, “Use of multi-layer controlled-release tablet comprising ropinirole for the manufacture of medicament for the treatment of fibromyalgia” (priority 2001, published 2004).
Where a name gives a salt, the structure may show the parent alone.

Test system: fibromyalgia
Details: immediate release formulation

## CCCN(CCC)CCc1cccc2c1CC(=O)N2 [ropinirole hydrochloride]
  effectiveness in the treatment of fibromyalgia: particularly effective
